We go through six molecules from patent US20220218708A1, “METHODS FOR TREATING SMARCB1 DEFICIENT CANCER OR PAZOPANIB RESISTANT CANCER” (The Institute of Cancer Research:Royal Cancer Hospital, priority 2016, published 2022).

pIC50: −log10 of the molar value.

Common to all, as to assay type: cell-based
In one test the test system is PazR cells. The test is described as follows: Annexin V staining, automated imaging. The method, then:
(§1) Cells were grown initially in DMEM media containing drug concentration of 500 nM. The drug was incremented when the cells had proliferated to near confluency alongside minimal visible cell death. Drug concentration was incremented from 2 μM, 3 μM and 5 μM in a stepwise manner over 6 weeks. A final drug concentration of 5 μM was maintained in resistant cells. Media and drug were replenished twice weekly.
Details for annexin V staining and siRNA transfections are as follows. For Annexin V staining, 3000 cells/well were seeded into 96-well CellCarrier plates (Perkin Elmer). 24 h after seeding, drugs were added and incubated for an additional 48 h. FITC-Annexin V (BD Biosciences) and Hoechst 33342 (Tocris) diluted in 10× annexin binding buffer (0.1M HEPES, 1.4M NaCl, 25 mM CaCl2) was added and incubated at 37° C. for 15 minutes. Plates were imaged using an Operetta high-content imager (Perkin Elmer). Images were analysed using Harmony software (Perkin Elmer), and annexin positivity defined as number of annexin-FITC-positive cells relative to total number of Hoechst-positive nuclei. The interaction between drugs was analysed by the Chou and Talalay median effect principle as described (Todd et al., 2014). siRNA transfections were performed as follows, 2000 cells/well were reverse transfected in 96-well plates with SMARTpool siRNAs (Dharmacon) using Lullaby reagent (Oz Biosciences). Where indicated, cells were treated with vehicle or drug 24 h post transfection. Apoptosis and cell viability were measured using Caspase 3/7 Glo and Cell Titre Glo (Promega), respectively, 72-96 h post transfection according to manufacturer's instructions and normalised to cells transfected with a non-targeting siRNA pool.

In test [1] the test system is A204 cells (parental, MRT cell line). In words: Cell viability (WST-1) dose response. The note with it: for effect on cell viability: A204 cells, dose response; for pIC50: Homo sapiens, cell viability. The method, then: (§2) For SILAC experiments, A204 cells and resistant sublines were cultured in SILAC DMEM media (Thermo Fisher Scientific) supplemented with light lysine and arginine (ROKO) (Sigma) and heavy lysine and arginine (R10K8) (Goss Scientific) respectively.
(§3) 2000 cells/well were seeded in a 96-well plate and treated with inhibitors at the indicated dose and combinations for 24 h for apoptosis measurement by Caspase-Glo 3/7 Assay (Promega), or for 72 hours in cell viability measurements by WST-1 (Abcam), following the manufacturer's recommendations. IC50 data were generated from dose-response curves fitted using a four-parameter regression fit in PRISM 5 software (GraphPad).
Background: Formazan colour is commonly taken as a measure of viable cells.

A further test relates to AKT phosphorylation. The test is described as follows: Immunoblot of AKT phosphorylation. The note with it: MRT cells; drug treatment for 1 hour (FIG. 3H). The method, then:
(§4) After the indicated treatments, cells were lysed in RIPA lysis buffer at 4° C. Lysates were loaded onto SDS-PAGE gels followed by blotting onto PVDF membranes.
(§5) Details of antibodies, immunoprecipitation and immunofluorescence analyses are as follows. For immunoblotting, cells were lysed in RIPA lysis buffer supplemented with protease and phosphatase inhibitors (Thermo Pierce) at 4° C. Lysates were loaded onto SDS-PAGE gels followed by blotting onto PVDF membranes as described (Iwai et al., 2013). Blots were probed with primary antibodies followed by corresponding horseradish peroxidase-conjugated secondary antibodies. Primary antibodies include anti-PDGFRα #3174, CST; anti-pAKT (S473) #4058, CST; anti-AKT #4691, CST; anti-pERK-T202/Y204 #4370, CST; anti-ERK #9102, CST; anti-FGFR1 #76464, abcam; anti-BAF47 (SMARCB1) #61211, BD; anti-TFR #13-6890, ThermoFisherScientific; anti-pY1000 #8954, CST and anti-α-Tubulin #T5168, Sigma. Secondary antibodies include Polyclonal Goat Anti-Rabbit HRP #P0448, Dako and Anti-Mouse HRP #G32-62G-1000, Signalchem. Immunoreactive bands were visualized by chemiluminescence (Amersham) and the blots were exposed to x-ray XAR film (Kodak).
Background: A western blot detects proteins with antibodies after separation by electrophoresis.

Test [2] deals with Pazopanib resistant A204 cells (PazR). The test is described as follows: Cell viability in acquired resistant subline. The note with it: Homo sapiens. The method, then:
as §1, §3

A further test addresses T1, PDGFRα phosphorylation (Homo sapiens, UniProt P16234).
T1 construct: Immunoprecipitation of PDGFRα followed by immunoblotting with phosphotyrosine-specific antibody (PY1000) in A204 cells; endogenous in cells; host or cells: A204 cells
In words: Immunoprecipitation of PDGFRα and phosphotyrosine immunoblot. The following applies: A204 cells; 1 μM for 1 hour.

The next test relates to ERK1/2 phosphorylation. In words: Immunoblot of ERK1/2 phosphorylation. The following applies: MRT cells; drug treatment for 1 hour (FIG. 3H). How it is done:
as §4, §5

The subject of test [3] is G402 cells (MRT cell line). The test is described as follows: Cell viability (WST-1) dose response. The note with it: for effect on cell viability: G402 cells, dose response; for pIC50: Homo sapiens, G-402, G402, cell viability, 72 hours. The method, then:
as §2, §3

In test [4] the test system is MRT cells (A204 and G402). The test is described as follows: Apoptosis by Caspase-Glo 3/7 assay. The note with it: caspase 3/7 activity. How it is done: as §3
Test [5] has as its system Sunitinib resistant A204 cells (SunR). In words: Cell viability in acquired resistant subline. The following applies: Homo sapiens. The method, then: as §1, §3
Test [6] relates to Dasatinib resistant A204 cells (DasR). The test is described as follows: Cell viability in acquired resistant subline. The note with it: Homo sapiens. How it is done:
as §1, §3

For a further test, the system named is SW872 cells. In words: Cell viability (WST-1) dose response. The note with it: Homo sapiens, 72 hours. The method, then:
(§6) Cells were cultured in DMEM (A204, G402, Saos2, U2OS, HT1080, SW684, SW872, SW982, Hs729T, RUCH-3, T9195 and AN3CA), RPMI (RMS-YM and SJSA-1) or McCoy5A (MES-SA) media supplemented with 10% FBS/2 mM glutamine/100 units/ml penicillin/[…] streptomycin in 95% air/5% CO2 atmosphere at 37° C. For SILAC experiments, A204 cells and resistant sublines were cultured in SILAC DMEM media (Thermo Fisher Scientific) supplemented with light lysine and arginine (ROKO) (Sigma) and heavy lysine and arginine (R10K8) (Goss Scientific) respectively.
as §3

A further test concerns Hs729T cells. In words: Cell viability (WST-1) dose response. The following applies: 72 hours. How it is done: as §6, §3
Another test deals with SW684 cells. In words: Cell viability (WST-1) dose response. The following applies: Homo sapiens, 72 hours. How it is done:
as §6, §3

A further test has as its system SAOS2 cells. In words: Cell viability (WST-1) dose response. The note with it: Homo sapiens, SAOS-2, 72 hours. The method, then:
as §6, §3

The test system of another test is T91-95 cells. In words: Cell viability (WST-1) dose response. The note with it: 72 hours. How it is done: as §6, §3
Another test concerns MES-SA cells. In words: Cell viability (WST-1) dose response. The note with it: Homo sapiens, 72 hours. The method, then: as §6, §3
In another test the test system is HT1080 cells. The test is described as follows: Cell viability (WST-1) dose response. The following applies: Homo sapiens, HT-1080, 72 hours. How it is done:
as §6, §3

In a further test the test system is RUCH-3 cells. In words: Cell viability (WST-1) dose response. The following applies: 72 hours. The method, then: as §6, §3
For the next test, the system named is SW982 cells. The test is described as follows: Cell viability (WST-1) dose response. The note with it: Homo sapiens, 72 hours. The method, then: as §6, §3
Another test concerns SJSA-1 cells. The test is described as follows: Cell viability (WST-1) dose response. The note with it: Homo sapiens, 72 hours. The method, then:
as §6, §3

The test system of a further test is U2OS cells. In words: Cell viability (WST-1) dose response. The following applies: Homo sapiens, 72 hours. The method, then: as §6, §3
The test system of the next test is RMS-YM cells. The test is described as follows: Cell viability (WST-1) dose response. The following applies: 72 hours. How it is done: as §6, §3
Where [7] appears, read: 72 h, Pazopanib resistant A204 cell line, single and combination drug treatment, Table S3.
The mark [8] stands for this setting: A204 Pazopanib resistant subline, cell viability, Table S2.

Broadly, the pIC50 is −log10 of the IC50, conventionally taken in molar units.

T1 sequence (P16234 24-1089): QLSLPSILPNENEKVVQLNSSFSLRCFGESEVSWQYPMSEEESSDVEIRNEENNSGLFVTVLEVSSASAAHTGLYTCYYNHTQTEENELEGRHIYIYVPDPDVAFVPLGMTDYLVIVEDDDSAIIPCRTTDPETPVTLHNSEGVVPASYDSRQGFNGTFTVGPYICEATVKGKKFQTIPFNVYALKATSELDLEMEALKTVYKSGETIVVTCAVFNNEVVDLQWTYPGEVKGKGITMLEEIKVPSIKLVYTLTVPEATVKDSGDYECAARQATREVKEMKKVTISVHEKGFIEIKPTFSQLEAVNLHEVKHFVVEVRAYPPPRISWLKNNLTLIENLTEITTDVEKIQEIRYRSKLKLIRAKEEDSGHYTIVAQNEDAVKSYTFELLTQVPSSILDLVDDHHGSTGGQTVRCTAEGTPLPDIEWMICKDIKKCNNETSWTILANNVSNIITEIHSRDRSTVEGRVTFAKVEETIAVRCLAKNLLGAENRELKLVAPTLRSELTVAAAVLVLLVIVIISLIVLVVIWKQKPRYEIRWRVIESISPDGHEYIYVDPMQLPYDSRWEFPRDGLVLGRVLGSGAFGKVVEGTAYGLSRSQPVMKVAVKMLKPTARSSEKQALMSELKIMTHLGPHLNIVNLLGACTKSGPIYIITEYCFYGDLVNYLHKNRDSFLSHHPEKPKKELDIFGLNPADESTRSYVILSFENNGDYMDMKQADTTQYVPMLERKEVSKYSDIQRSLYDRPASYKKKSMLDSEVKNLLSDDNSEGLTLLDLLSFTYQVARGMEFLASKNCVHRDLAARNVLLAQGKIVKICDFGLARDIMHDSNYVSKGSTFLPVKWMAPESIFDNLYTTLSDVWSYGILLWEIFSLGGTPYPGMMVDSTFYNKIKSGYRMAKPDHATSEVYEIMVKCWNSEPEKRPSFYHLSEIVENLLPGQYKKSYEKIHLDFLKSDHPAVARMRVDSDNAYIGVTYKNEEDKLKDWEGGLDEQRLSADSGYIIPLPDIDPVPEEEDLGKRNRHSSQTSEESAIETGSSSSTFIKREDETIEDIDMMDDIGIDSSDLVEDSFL
Procedure for PDGFRα phosphorylation: For immunoprecipitation, cells were lysed in RIPA lysis buffer (contained 1% Triton) supplemented with protease and phosphatase inhibitors (Thermo Pierce) at 4° C. After microcentrifugation at 2,000 rpm. for 10 min, 200 μg of lysate was diluted in 200 ul lysis buffer. […] Protein G plus agarose beads were added and incubated for three hours at 4° C. to collect immune complexes, washed five times with lysis buffer and eluted in sample buffer. Proteins were resolved by SDS-PAGE, transferred to PVDF membrane and immunoblotting was performed as described above.

Regarding `CCN1CCN(c2ccc(Nc3cc(N(C)C(=O)Nc4c(Cl)c(OC)cc(OC)c4Cl)ncn3)cc2)CC1` [BGJ398], the “proportion of apoptotic cells compared to vehicle control” value with PazR cells is “significant increase”. Besides, in test [1], the “effect on cell viability” value is recorded as “reduced viability”. The “AKT phosphorylation” value in the test on AKT phosphorylation is on record as “no effect”. In addition, the pIC50 in [2] (setting [7]) is 6.61. On PDGFRα phosphorylation, the “PDGFRα phosphorylation” value was “no effects”. The “ERK1/2 phosphorylation” value with ERK1/2 phosphorylation is on record as “decreased”.
For the molecule `Cc1ccc(C(=O)Nc2ccc(CN3CCN(C)CC3)c(C(F)(F)F)c2)cc1C#Cc1cnc2cccnn12` [Ponatinib, 3-(2-imidazo[1,2-b]pyridazin-3-ylethynyl)-4-methyl-N-[4-[(4-methyl-1-piperazinyl)methyl]-3-(trifluoromethyl)phenyl]-benzamide], the “proportion of apoptotic cells compared to vehicle control” value in the test on PazR cells is “significant increase”. In addition, the “effect on cell viability” value in test [1] and in test [3] was “sensitive” throughout. Further, the “AKT phosphorylation” value in the test on AKT phosphorylation is “suppression”. Further, the pIC50 in test [2] (setting [7]) is 6.57. Also, the “apoptosis” value in [4] is listed as “enhanced apoptosis”. Further, the “ERK1/2 phosphorylation” value with ERK1/2 phosphorylation is on record as “suppression”.
AZD4547: the “effect on cell viability” value in test [1] and in [3] was “ineffective” each time.
For `Cc1ccc(Nc2nccc(N(C)c3ccc4c(C)n(C)nc4c3)n2)cc1S(N)(=O)=O` [Pazopanib, pazopanib], the “proportion of apoptotic cells compared to vehicle control” value with PazR cells is “no effect”. In addition, the pIC50 in test [1] (A204, 72 hours, Table S1) is 6.66; in [1] (A204 Parental, Table S2), 6.61; in [3] it was 6.62; in test [2] (setting [7]), below 5.00; in [2] (setting [8]) it was below 5.00; in test [5] it was below 5.00. Moreover, the pIC50 (in [6]; in the test on SW872 cells; with Hs729T cells; in the test with SW684 cells; in the test on SAOS2 cells; in the test on T91-95 cells) was below 5.00 in each case. Besides, the negative-log IC50 (pIC50) with MES-SA cells, with HT1080 cells, in the test with RUCH-3 cells, in the test with SW982 cells, with SJSA-1 cells and in the test with U2OS cells was below 5.00 in each case. Further, the pIC50 in the test on RMS-YM cells was below 5.00.
Regarding `Cc1nc(Nc2ncc(C(=O)Nc3c(C)cccc3Cl)s2)cc(N2CCN(CCO)CC2)n1` [Dasatinib, dasatinib], the pIC50 is 7.38 in test [1] (A204, 72 hours, Table S1); 7.38 in test [1] (A204 Parental, Table S2); 7.21 in test [3]; below 5.00 in test [2] (setting [8]); below 5.00 in test [5]; below 5.00 in [6]. The pIC50 is 5.98 in the test with SW872 cells; below 5.00 with Hs729T cells; 7.20 in the test with SW684 cells; 5.94 in the test on SAOS2 cells; below 5.00 with T91-95 cells; below 5.00 in the test on MES-SA cells. The pIC50 is below 5.00 with HT1080 cells; below 5.00 in the test with RUCH-3 cells; 6.73 with SW982 cells; below 5.00 in the test on SJSA-1 cells; below 5.00 in the test with U2OS cells; below 5.00 in the test with RMS-YM cells.
Take `CCN(CC)CCNC(=O)c1c(C)[nH]c(/C=C2\C(=O)Nc3ccc(F)cc32)c1C` [Sunitinib, sunitinib]: the pIC50 is 7.44 in test [1] (A204, 72 hours, Table S1); 7.44 in test [1] (A204 Parental, Table S2); 7.43 in [3]; below 5.00 in test [2] (setting [8]); below 5.00 in [5]; 5.30 in test [6]. Further, the negative logarithm of the IC50 (pIC50) in the test with SW872 cells was below 5.00; with Hs729T cells, below 5.00; with SW684 cells, below 5.00; in the test with SAOS2 cells, 5.34; in the test on T91-95 cells it was below 5.00; in the test with MES-SA cells, below 5.00. The pIC50 was below 5.00 in the test with HT1080 cells; below 5.00 in the test with RUCH-3 cells; 6.24 in the test on SW982 cells; below 5.00 with SJSA-1 cells; below 5.00 in the test with U2OS cells; below 5.00 in the test on RMS-YM cells.
